Each structure is given as a SMILES string.

What is called melting point is the temperature, or range, at which the solid turns liquid. As to `Cn1ncc(/C=C/C(=O)Nc2ccc(CCO)cc2)c1-c1ccc(F)cc1` [Example 167, (2E)-3-[5-(4-Fluorophenyl)-1-methyl-1H-pyrazol-4-yl]-N-[4-(2-hydroxyethyl)phenyl]acrylamide], the melting point lay in the range of 198 to 200 °C.
For `Cn1ncc(/C=C/C(=O)Nc2ccc(CN)cc2)c1-c1ccc(F)cc1` [Example 137, (2E)-N-[4-(aminomethyl)phenyl]-3-[5-(4-fluorophenyl)-1-methyl-1H-pyrazol-4-yl]acrylamide], the melting point lay in the range of 201 to 202 °C.
For `CC(=O)NCc1ccc(NC(=O)/C=C/c2cnn(C)c2-c2ccc(F)cc2)cc1` [Example 189, (2E)-N-{4-[(Acetylamino)methyl]phenyl}-3-[5-(4-fluorophenyl)-1-methyl-1H-pyrazol-4-yl]acrylamide], the melting point fell in the range of 233 to 234 °C.
On to `CCc1nc(COc2ccc(NC(=O)/C=C/c3cnn(C)c3-c3ccc(F)cc3)cc2)cs1` [Example 93, (2E)-N-{4-[(2-Ethyl-1,3-thiazol-4-yl)methoxy]phenyl}-3-[5-(4-fluorophenyl)-1-methyl-1H-pyrazol-4-yl]acrylamide], for which the melting point was in the range of 98 to 99 °C.
`Cn1ncc(/C=C/C(=O)Nc2ccc(Cc3nnco3)cc2)c1-c1ccc(F)cc1` [Example 129, (2E)-3-[5-(4-Fluorophenyl)-1-methyl-1H-pyrazol-4-yl]-N-[4-(1,3,4-oxadiazol-2-ylmethyl)phenyl]acrylamide] yielded a melting point of 223 to 224 °C.
Turning to `Cn1ncc(/C=C/C(=O)Nc2ccccc2CO)c1-c1ccc(F)cc1` [Example 184, (2E)-3-[5-(4-Fluorophenyl)-1-methyl-1H-pyrazol-4-yl]-N-[2-(hydroxymethyl)phenyl]acrylamide], the melting point fell in the range of 119 to 120 °C.
`Cn1ncc(/C=C/C(=O)Nc2ccc(CS(=O)(=O)c3c[nH]nn3)cc2)c1-c1ccc(F)cc1` [Example 227, (2E)-3-[5-(4-Fluorophenyl)-1-methyl-1H-pyrazol-4-yl]-N-{4-[(1H-1,2,3-triazol-4-ylsulfonyl)methyl]phenyl}acrylamide] yielded a melting point of 204 to 206 °C.
`O=C(O)Cc1ccc(NC(=O)CCc2cnn(-c3ccccc3)c2-c2ccccc2)cc1` [Example 83, (4-{[3-(1,5-diphenyl-1H-pyrazol-4-yl)propanoyl]amino}phenyl)acetic acid] gave a melting point of 199 to 201 °C.
The same measure for `CCOP(=O)(Cc1ccc(NC(=O)/C=C/c2cnn(C)c2-c2ccc(C(F)(F)F)cc2)cc1)OCC`: 200 to 201 °C; for `CCc1cn(Cc2ccc(NC(=O)/C=C/c3cnn(C)c3-c3ccc(F)cc3)cc2)cn1` [Example 171, (2E)-N-{4-[(4-Ethyl-1H-imidazol-1-yl)methyl]phenyl}-3-[5-(4-fluorophenyl)-1-methyl-1H-pyrazol-4-yl]acrylamide]: 224 to 226 °C; for `Cn1ncc(/C=C/C(=O)Nc2ccc(CN3C(=O)CCCC3=O)cc2)c1-c1ccc(F)cc1` [Example 158, (2E)-N-{4-[(2,6-Dioxo-1-piperidinyl)methyl]phenyl}-3-[5-(4-fluorophenyl)-1-methyl-1H-pyrazol-4-yl]acrylamide]: 218 to 220 °C.
Next, `Cn1ncc(/C=C/C(=O)Nc2ccc(Cc3nc4ccccc4o3)cc2)c1-c1ccc(F)cc1` [Example 107, (2E)-N-[4-(1,3-Benzoxazol-2-ylmethyl)phenyl]-3-[5-(4-fluorophenyl)-1-methyl-1H-pyrazol-4-yl]acrylamide]: 195 to 196 °C.
`COc1ccc(-c2c(/C=C\C(=O)Nc3ccc(CP(=O)(OC)OC)cc3)cnn2C)cc1` showed a melting point of 172 to 173 °C.
The molecule `CCC(=O)NCc1ccc(NC(=O)/C=C/c2cnn(C)c2-c2ccc(F)cc2)cc1` [Example 138, (2E)-3-[5-(4-fluorophenyl)-1-methyl-1H-pyrazol-4-yl]-N-{4-[(propionylamino)methyl]phenyl}acrylamide] displayed a melting point of 271 to 272 °C.
Molecule `CCOP(=O)(Cc1ccc(NC(=O)/C=C/c2nn(C)cc2-c2ccc(F)cc2)cc1)OCC` came in with a melting point of 203 to 204 °C.
Regarding `Cn1ncc(/C=C/C(=O)Nc2ccc(C(=O)O)cc2)c1-c1ccc(F)cc1` [Example 234, 4-({(2E)-3-[5-(4-fluorophenyl)-1-methyl-1H-pyrazol-4-yl]prop-2-enoyl}amino)benzoic acid], the melting point lay within 291 to 292 °C.
`CCc1nccn1Cc1ccc(NC(=O)/C=C/c2cnn(C)c2-c2ccc(F)cc2)cc1` [Example 191, (2E)-N-{4-[(2-Ethyl-1H-imidazol-1-yl)methyl]phenyl}-3-[5-(4-fluorophenyl)-1-methyl-1H-pyrazol-4-yl]acrylamide] registered a melting point of 237 to 238 °C.
As for `Cn1ncc(/C=C/C(=O)Nc2ccc(CCn3ccnc3)cc2)c1-c1ccc(F)cc1` [Example 187, (2E)-3-{5-(4-Fluorophenyl)-1-methyl-1H-pyrazol-4-yl}-N-{4-[2-(1H-imidazol-1-yl)ethyl]phenyl}acrylamide], the melting point was 160 to 162 °C.
Molecule `Cn1ncc(/C=C/C(=O)Nc2ccc(Cc3nn(C)c(=O)o3)cc2)c1-c1ccc(F)cc1` [Example 119, (2E)-3-[5-(4-Fluorophenyl)-1-methyl-1H-pyrazol-4-yl]-N-{4-[(4-methyl-5-oxo-4,5-dihydro-1,3,4-oxadiazol-2-yl)methyl]phenyl}acrylamide] showed a melting point of 200 to 201 °C.
The molecule `COP(=O)(Cc1ccc(NC(=O)/C=C/c2cnn(C)c2-c2cccs2)cc1)OC` showed a melting point of 247 to 248 °C.
Regarding `Cn1ncc(/C=C/C(=O)Nc2ccc(S(=O)(=O)c3ccccc3)cc2)c1-c1ccc(F)cc1` [Example 206, (2E)-3-[5-(4-Fluorophenyl)-1-methyl-1H-pyrazol-4-yl]-N-[4-(phenylsulfonyl)phenyl]acrylamide], the melting point was in the range of 169 to 172 °C.
On to `Cc1csc(Cc2ccc(NC(=O)/C=C/c3cnn(C)c3-c3ccc(F)cc3)cc2)n1` [Example 127, (2E)-3-[5-(4-Fluorophenyl)-1-methyl-1H-pyrazol-4-yl]-N-(4-[(4-methyl-1,3-thiazol-2-yl)methyl)phenyl]acrylamide], for which the melting point fell in the range of 217 to 218 °C.
The same measure for `CCOP(=O)(Cc1ccc(NC(=O)/C=C/c2cn[nH]c2-c2ccc(F)cc2)cc1)OCC`: 181 to 182 °C.
For the molecule `CCOP(=O)(Cc1ccc(NC(=O)/C=C/c2cnn(Cc3ccccc3)c2-c2ccc(F)cc2)cc1)OCC`, the melting point fell in the range of 207 to 208 °C.
Next, `CCOP(=O)(Cc1ccc(NC(=O)/C=C/c2cn(C)nc2-c2ccc(F)cc2)cc1)OCC`: 197 to 198 °C.
The same measure for `COP(=O)(Cc1ccc(NC(=O)/C=C/c2cnn(C)c2-c2ccc(Cl)cc2)cc1)OC`: 209 to 210 °C.
`Cn1ncc(/C=C/C(=O)Nc2ccc(CSC(C)(C)C)cc2)c1-c1ccc(F)cc1` [Example 211, (2E)-N-{4-[(tert-Butylthio)methyl]phenyl}-3-[5-(4-fluorophenyl)-1-methyl-1H-pyrazol-4-yl]acrylamide]: the melting point fell in the range of 166 to 168 °C.
As for `CC(C)CC(=O)NCc1ccc(NC(=O)/C=C/c2cnn(C)c2-c2ccc(F)cc2)cc1` [Example 141, (2E)-3-[5-(4-Fluorophenyl)-1-methyl-1H-pyrazol-4-yl]-N-(4-{[(3-methylbutanoyl)amino]methyl}phenyl)acrylamide], the melting point fell in the range of 226 to 227 °C.
As for `Cn1nnnc1SCc1ccc(NC(=O)/C=C/c2cnn(C)c2-c2ccc(F)cc2)cc1` [Example 214, (2E)-3-[5-(4-Fluorophenyl)-1-methyl-1H-pyrazol-4-yl]-N-(4-[[(1-methyl-1H-tetrazol-5-yl)thio]methyl]phenyl)acrylamide], the melting point was 150 to 152 °C.
`Cn1ncc(/C=C/C(=O)Nc2ccc(CCn3cccn3)cc2)c1-c1ccc(F)cc1` [Example 186, (2E)-3-[5-(4-Fluorophenyl)-1-methyl-1H-pyrazol-4-yl]-N-{4-[2-(1H-pyrazol-1-yl)ethyl]phenyl}acrylamide]: the melting point lay in the range of 205 to 206 °C.
Next, `COP(=O)(Cc1ccc(NC(=O)/C=C/c2cnn(C)c2-c2cccc3ccccc23)cc1)OC`: 207 to 209 °C.
`CCc1nnc(Cc2ccc(NC(=O)/C=C/c3cnn(C)c3-c3ccc(F)cc3)cc2)o1` [Example 134, (2E)-N-{4-[(5-ethyl-1,3,4-oxadiazol-2-yl)methyl]phenyl}-3-[5-(4-fluorophenyl)-1-methyl-1H-pyrazol-4-yl]acrylamide] showed a melting point of 164 to 165 °C.
With `CCOP(=O)(Cc1ccc(NC(=O)/C=C/c2cnn(C)c2-c2ccc(Br)cc2)cc1)OCC`, the melting point lay within 229 to 231 °C.
Molecule `CC(=O)c1ccc(NC(=O)/C=C/c2cnn(C)c2-c2ccc(F)cc2)cc1` [Example 165, (2E)-N-(4-Acetylphenyl)-3-[5-(4-fluorophenyl)-1-methyl-1H-pyrazol-4-yl)acrylamide] had a melting point of 204 to 205 °C.
Turning to `Cn1ncc(/C=C/C(=O)Nc2ccc(C(O)c3ccccc3)cc2)c1-c1ccc(F)cc1` (stereo not drawn) [Example 174, (2E)-3-[5-(4-Fluorophenyl)-1-methyl-1H-pyrazol-4-yl]-N-{4-[hydroxy(phenyl)methyl]phenyl}acrylamide], the melting point lay within 192 to 195 °C.
As to `CCc1nc(Cc2ccc(NC(=O)/C=C/c3cnn(C)c3-c3ccc(F)cc3)cc2)cs1` [Example 99, (2E)-N-{4-[(2-Ethyl-1,3-thiazol-4-yl)methyl]phenyl}-3-[5-(4-fluorophenyl)-1-methyl-1H-pyrazol-4-yl]acrylamide], the melting point lay in the range of 178 to 179 °C.
In turn, `Cn1ncc(/C=C/C(=O)Nc2ccc(C[S+](C)[O-])cc2)c1-c1ccc(F)cc1` (stereo not drawn) [Example 215, (2E)-3-(5-(4-fluorophenyl)-1-methyl-1H-pyrazol-4-yl)-N-(4-((methylsulfinyl)methyl)phenyl)acrylamide] yielded a melting point of 240 to 241 °C.
The same measure for `CCc1coc(Cc2ccc(NC(=O)/C=C/c3cnn(C)c3-c3ccc(F)cc3)cc2)n1` [Example 98, (2E)-N-{4-[(4-Ethyl-1,3-oxazol-2-yl)methyl]phenyl}-3-[5-(4-fluorophenyl)-1-methyl-1H-pyrazol-4-yl]acrylamide]: 174 to 175 °C.
Consider `CCOC(=O)c1ccc(NC(=O)/C=C/c2cnn(C)c2-c2ccc(F)cc2)cc1` [Example 180, ethyl 4-({(2E)-3-[5-(4-fluorophenyl)-1-methyl-1H-pyrazol-4-yl]prop-2-enoyl}amino)benzoate], for which the melting point fell in the range of 202 to 203 °C.

Source of the values: US7423159B2, “Agent for preventing or treating neuropathy” (Takeda Pharmaceutical Company Limited, priority 2002, dated 2008).
